The values below come from publication PMC6152180, “Design, Synthesis and Evaluation of Hesperetin Derivatives as Potential Multifunctional Anti-Alzheimer Agents” (Molecules : A Journal of Synthetic Chemistry and Natural …, 2017).

Where two headings read alike, the source gives them in different places. Where only a bound is given, the exact number is not on record here.

The nature of one data set: in vitro. Conditions: human.
A further data set addresses T1, BuChE (Equus caballus, UniProt P81908).
T1 construct: purchased Aladdin B128570-2KU; host or cells: equine serum
Kind of data set: biochemical.

Data set [1] in a line: Oxygen radical absorbance capacity-fluorescein (ORAC-FL) assay. As to conditions: Trolox equivalents, Trolox = 1.
Description: Vitamin E analogue Trolox was used as the standard, and the results were expressed as Trolox equivalents.
The anti-oxidation activity was tested by using the oxygen radical absorbance capacity-fluorescein (ORAC-FL) assay [25, 32]. All the ORAC-assays measure antioxidant scavenging activity against peroxyl radical induced by 2,2′-azobis (2-amidinopropane) dihydrochloride (AAPH) at 37 °C.
The reaction was conducted with 75 mM phosphate buffer (pH 7.4) and the final reaction mixture was 200 μL. Fluorescein (120 μL, 300 nM final concentration) and antioxidant (20 μL) were placed in the wells of a black 96-well plate, and the mixture was incubated for 15 min at 37 °C. Then AAPH solution (60 μL, 12 mM final concentration) was added rapidly. […] 6-hydroxy-2,5,7,8-tetramethylchroman-2-carboxylic acid (Trolox) was used as a standard (1–5 μM, final concentration). A blank (FL + AAPH) using phosphate buffer instead of antioxidant and Trolox calibration were carried out in each assay. The samples were measured at different concentrations (1–5 μM), and at least three independent assays were performed for each sample. Fluorescence measurements were normalized based on the curve of the blank (without antioxidant). Antioxidant curves (fluorescence versus time) were normalized to the curve of the blank in the same assay, and then the area under the fluorescence decay curve (AUC) was calculated. The net AUC of a sample was obtained by subtracting the AUC from the blank. ORAC-FL values were expressed as Trolox equivalents by using the standard curve calculated for each sample, where the ORAC-FL value of Trolox was taken as one, indicating the antioxidant potency of the test compounds.
The target of a further data set is T2, AChE (Electrophorus electricus, UniProt O42275).
T2 construct: purchased Sigma-Aldrich C3389-2KU
The data set can be described thus: biochemical. Conditions: for Selective Index: Selectivity Index = IC50 (BuChE)/IC50 (AChE).

Where [2] appears, read: BuChE from equine serum, means ± SEM of three experiments, read-out: BuChE Inhibition, (IC50).
Where [3] appears, read: AChE from electric eel, means ± SEM of three experiments, read-out: AchE Inhibition, (IC50).

T1 sequence (P81908 whole entry): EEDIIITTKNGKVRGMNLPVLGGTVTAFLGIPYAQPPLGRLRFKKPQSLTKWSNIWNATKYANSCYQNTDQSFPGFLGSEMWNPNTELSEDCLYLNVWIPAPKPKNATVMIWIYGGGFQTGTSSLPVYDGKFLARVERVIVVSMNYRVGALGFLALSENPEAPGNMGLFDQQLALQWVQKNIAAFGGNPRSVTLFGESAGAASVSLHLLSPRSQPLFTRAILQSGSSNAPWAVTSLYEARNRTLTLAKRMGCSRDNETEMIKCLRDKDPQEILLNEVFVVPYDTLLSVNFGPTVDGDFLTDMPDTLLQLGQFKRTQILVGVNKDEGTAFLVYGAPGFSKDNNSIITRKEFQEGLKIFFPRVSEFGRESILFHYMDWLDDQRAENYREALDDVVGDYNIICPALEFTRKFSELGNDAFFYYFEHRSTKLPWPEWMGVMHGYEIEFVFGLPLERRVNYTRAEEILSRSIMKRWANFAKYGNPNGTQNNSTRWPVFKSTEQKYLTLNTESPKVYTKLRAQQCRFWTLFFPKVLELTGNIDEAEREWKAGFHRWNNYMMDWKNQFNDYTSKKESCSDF
T2 sequence (O42275 24-633): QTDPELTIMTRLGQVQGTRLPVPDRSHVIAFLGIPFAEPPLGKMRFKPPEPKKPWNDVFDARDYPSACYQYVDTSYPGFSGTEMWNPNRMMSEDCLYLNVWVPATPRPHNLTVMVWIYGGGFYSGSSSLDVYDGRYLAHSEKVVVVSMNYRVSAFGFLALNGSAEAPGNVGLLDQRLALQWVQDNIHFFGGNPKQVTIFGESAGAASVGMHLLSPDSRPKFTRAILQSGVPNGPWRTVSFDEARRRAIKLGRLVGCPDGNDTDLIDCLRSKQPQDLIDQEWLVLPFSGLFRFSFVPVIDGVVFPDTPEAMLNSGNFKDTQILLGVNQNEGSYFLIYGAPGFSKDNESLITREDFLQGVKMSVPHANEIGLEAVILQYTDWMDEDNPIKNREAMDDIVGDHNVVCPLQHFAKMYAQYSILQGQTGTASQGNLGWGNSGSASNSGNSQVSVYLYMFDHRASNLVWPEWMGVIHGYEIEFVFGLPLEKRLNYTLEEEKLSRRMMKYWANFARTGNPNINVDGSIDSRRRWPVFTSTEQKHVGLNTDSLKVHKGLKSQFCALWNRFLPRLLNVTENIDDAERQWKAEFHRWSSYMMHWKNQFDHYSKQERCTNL
Description for AChE: (§1) Acetylcholinesterase (AChE, E.C. 3.1.1.7, obtained from electric eel) was purchased from Sigma-Aldrich (St. Louis, MO, USA, product code: C3389-2KU). Butyrylcholinesterase (BuChE, E.C. 3.1.1.8, obtained from equine serum) was purchased from Aladdin (Shanghai, China, product code: B128570-2KU). […] The compounds were dissolved in a minimum volume of DMSO (1%) and then diluted in 0.1 M KH2PO4/K2HPO4 buffer (pH 8.0) to provide a final concentration range.
(§2) Enzyme solutions were prepared to give 2.0 units/ mL in 2 mL aliquots. The assay medium contained phosphate buffer, pH 8.0 (1 mL), 50 μL of 0.01 M DTNB, 10 μL of enzyme, and 50 μL of 0.01 M substrate (ATC). The substrate was added to the assay medium containing enzyme, buffer, and DTNB with inhibitor after 15 min of incubation time. […] In vitro BuChE assay used the similar method described above [31]. Each concentration was assayed in triplicate.
Description for BuChE: as §1, §2
Description for in vitro: Thus, we used the methylthiazolyl tetrazolium (MTT) method [30] to perform a neurocyte (SH-SY5Y) toxicity test in vitro.
The SH-SY5Y cell line was seeded on 96-well plates at a density of 10^4 cells/well. […] Subsequently, 10 μL of 5 mg/mL MTT solution was added to each well and further incubated for 4 h at 37 °C. The solution was carefully removed, and each well was treated with DMSO (200 μL for each well). The optical density of the wells was then read on the microplate reader at 570 nm. All the tested compounds were performed in triplicate.

On to `COc1ccc(C2CC(=O)c3c(O)cc(OCC(=O)NCc4ccc(Cl)cc4)cc3O2)cc1O` (stereo not drawn) [Compound 4b, N-(4-Chlorobenzyl)-2-[5-hydroxy-2-(3-hydroxy-4-methoxyphenyl)-4-oxochroman-7-yloxy]-acetamide], for which, in “in vitro”, the viability at 48 h, 1 µM was determined as 103 ± 4.56%; the viability at 48 h, 10 µM was 95.9 ± 3.98%; the viability at 48 h, 50 µM came out at 83.7 ± 4.12%; the viability at 48 h, 100 µM was 65.4 ± 5.33%. For the same compound, on BuChE (setting [2]), the half-maximal inhibitory concentration (IC50) was 3500 ± 66 nM. Besides, the ORAC in data set [1] is 2.7 μM of Trolox equivalent/μMof tested compound. For the same compound, the IC50 on AChE (setting [3]) is 13.6 ± 0.78 nM. In addition, the “Selective Index” value at AChE was 258.
As to `COc1ccc(C2CC(=O)c3c(O)cc(OCC(=O)NCc4ccc(F)cc4)cc3O2)cc1O` (stereo not drawn) [Compound 4c, N-(4-Fluorobenzyl)-2-[5-hydroxy-2-(3-hydroxy-4-methoxyphenyl)-4-oxochroman-7-yloxy]-acetamide], in the data set “in vitro”, the viability at 48 h, 1 µM was 98.5 ± 4.98%; the viability at 48 h, 10 µM stood at 97.5 ± 3.76%; the viability at 48 h, 50 µM is 83.8 ± 2.32%; the viability at 48 h, 100 µM came out at 58.8 ± 3.97%. Moreover, the IC50 at BuChE (setting [2]) is 2080 ± 76 nM. The ORAC in data set [1] is 2.9 μM of Trolox equivalent/μMof tested compound. Further, the IC50 on AChE (setting [3]) was found to be 12.4 ± 0.81 nM. In addition, on AChE, the “Selective Index” value was 167.
As for `COc1ccc(C2CC(=O)c3c(O)cc(OCC(=O)NCc4ccc(Br)cc4)cc3O2)cc1O` (stereo not drawn) [Compound 4d, N-(4-Bromobenzyl)-2-[5-hydroxy-2-(3-hydroxy-4-methoxyphenyl)-4-oxochroman-7-yloxy]-acetamide], in “in vitro”, the viability at 48 h, 1 µM is 99.9 ± 5.76%; the viability at 48 h, 10 µM was 99.5 ± 6.23%; the viability at 48 h, 50 µM was 86.2 ± 5.14%; the viability at 48 h, 100 µM is 70 ± 4.78%. Moreover, the IC50 on BuChE (setting [2]) worked out at 2130 ± 64 nM. The ORAC in data set [1] was 2.6 μM of Trolox equivalent/μMof tested compound. The IC50 at AChE (setting [3]) was 15.7 ± 0.95 nM. For the same compound, the “Selective Index” value on AChE was determined as 136.
As to `COc1ccc(CNC(=O)COc2cc(O)c3c(c2)OC(c2ccc(OC)c(O)c2)CC3=O)cc1` (stereo not drawn) [Compound 4e, 2-[5-Hydroxy-2-(3-hydroxy-4-methoxyphenyl)-4-oxochroman-7-yloxy]-N-(4-methoxy-benzyl)acetamide], in “in vitro”, the viability at 48 h, 1 µM stood at 105 ± 3.87%; the viability at 48 h, 10 µM was found to be 98.3 ± 5.27%; the viability at 48 h, 50 µM turned out to be 87.1 ± 6.37%; the viability at 48 h, 100 µM was found to be 66.5 ± 4.95%. The IC50 at BuChE (setting [2]) came out at 3210 ± 92 nM. Also, the ORAC in data set [1] was 2.8 μM of Trolox equivalent/μMof tested compound. In addition, the concentration for half-maximal inhibition (IC50) at AChE (setting [3]) is 17.9 nM. Also, the “Selective Index” value on AChE is listed as 179.
As to `COc1ccc(C2CC(=O)c3c(O)cc(OCC(=O)NCc4ccccc4Cl)cc3O2)cc1O` (stereo not drawn) [Compound 4g, N-(2-Chlorobenzyl)-2-[5-hydroxy-2-(3-hydroxy-4-methoxyphenyl)-4-oxochroman-7-yloxy]acetamide], in the data set “in vitro”, the viability at 48 h, 1 µM worked out at 97.8 ± 6.83%; the viability at 48 h, 10 µM came to 95.7 ± 5.67%; the viability at 48 h, 50 µM stood at 79.3 ± 4.33%; the viability at 48 h, 100 µM amounted to 70.8 ± 5.32%. In addition, the IC50 on BuChE (setting [2]) stood at 1630 ± 78 nM. The IC50 at AChE (setting [3]) stood at 14 ± 0.95 nM. The “Selective Index” value on AChE was determined as 116.
On to `COc1ccc(C2CC(=O)c3c(O)cc(OCC(=O)NCc4ccccc4F)cc3O2)cc1O` (stereo not drawn) [Compound 4h, N-(2-Fluorobenzyl)-2-[5-hydroxy-2-(3-hydroxy-4-methoxyphenyl)-4-oxochroman-7-yloxy]-acetamide], for which, in “in vitro”, the viability at 48 h, 1 µM is 100 ± 6.52%; the viability at 48 h, 10 µM stood at 98.8 ± 5.38%; the viability at 48 h, 50 µM is 75.8 ± 3.83%; the viability at 48 h, 100 µM is 60.6 ± 4.27%. In addition, the IC50 at BuChE (setting [2]) was 2800 ± 39 nM. In addition, in data set [1], the ORAC is reported as 2.5 μM of Trolox equivalent/μMof tested compound. Also, at AChE (setting [3]), the IC50 turned out to be 15.2 ± 2.03 nM. Also, the “Selective Index” value on AChE is on record as 184.
Regarding `COc1ccc(C2CC(=O)c3c(O)cc(OCC(=O)NCc4ccccc4OC)cc3O2)cc1O` (stereo not drawn) [Compound 4i, 2-[5-Hydroxy-2-(3-hydroxy-4-methoxyphenyl)-4-oxochroman-7-yloxy]-N-(2-methoxy-benzyl)acetamide], in “in vitro”, the viability at 48 h, 1 µM amounted to 97.8 ± 6.32%; the viability at 48 h, 10 µM was found to be 96.7 ± 5.21%; the viability at 48 h, 50 µM turned out to be 75 ± 4.12%; the viability at 48 h, 100 µM is 55 ± 5.69%. In addition, the IC50 on BuChE (setting [2]) came out at 1990 ± 134 nM. In addition, the ORAC in data set [1] is reported as 2.7 μM of Trolox equivalent/μMof tested compound. Moreover, on AChE (setting [3]), the IC50 is 19.2 ± 0.66 nM. Besides, the “Selective Index” value on AChE was found to be 103.
For the compound `COc1cccc(CNC(=O)COc2cc(O)c3c(c2)OC(c2ccc(OC)c(O)c2)CC3=O)c1` (stereo not drawn) [Compound 4j, 2-[5-Hydroxy-2-(3-hydroxy-4-methoxyphenyl)-4-oxochroman-7-yloxy]-N-(3-methoxy-benzyl)acetamide], in the data set “in vitro”, the viability at 48 h, 1 µM came to 103 ± 6.47%; the viability at 48 h, 10 µM came to 98.2 ± 7.01%; the viability at 48 h, 50 µM was determined as 84.2 ± 3.2%; the viability at 48 h, 100 µM came out at 70.8 ± 5.36%. In addition, on BuChE (setting [2]), the IC50 amounted to 2460 ± 83 nM. The ORAC in data set [1] is reported as 3.1 μM of Trolox equivalent/μMof tested compound. The IC50 on AChE (setting [3]) is 22.3 ± 1.54 nM. On AChE, the “Selective Index” value amounted to 110.
For `COc1ccc(C2CC(=O)c3c(O)cc(OCC(=O)NCCc4ccccc4)cc3O2)cc1O` (stereo not drawn) [Compound 4k, 2-[5-Hydroxy-2-(3-hydroxy-4-methoxyphenyl)-4-oxochroman-7-yloxy]-N-phenethyl-acetamide], in “in vitro”, the viability at 48 h, 1 µM worked out at 98.9 ± 6.3%; the viability at 48 h, 10 µM was 96.5 ± 2.98%; the viability at 48 h, 50 µM stood at 81 ± 3.22%; the viability at 48 h, 100 µM amounted to 68.5 ± 4.92%. The IC50 on BuChE (setting [2]) stood at 3010 ± 74 nM. Moreover, the ORAC in data set [1] is 2.7 μM of Trolox equivalent/μMof tested compound. For the same compound, the IC50 on AChE (setting [3]) worked out at 11.9 ± 1.12 nM. Further, at AChE, the “Selective Index” value is reported as 254.
`COc1ccc(C2CC(=O)c3c(O)cc(OCC(=O)NCCc4ccc(F)cc4)cc3O2)cc1O` (stereo not drawn) [Compound 4o, N-[2-(4-Fluorophenyl)ethyl]-2-[5-hydroxy-2-(3-hydroxy-4-methoxyphenyl)-4-oxochroman-7-yloxy]-acetamide]: in the data set “in vitro”, the viability at 48 h, 1 µM was 101 ± 6.31%; the viability at 48 h, 10 µM came out at 97.2 ± 5.09%; the viability at 48 h, 50 µM worked out at 81.7 ± 3.52%; the viability at 48 h, 100 µM is 59.7 ± 6.14%. Also, the IC50 on BuChE (setting [2]) came out at 2260 ± 81 nM. Besides, the IC50 on AChE (setting [3]) was determined as 13.5 ± 1.44 nM. Also, the “Selective Index” value at AChE was 167.
As for `COc1cc(/C=C/C(=O)CC(=O)/C=C/c2ccc(O)c(OC)c2)ccc1O` [Curcumin, curcumin, reference compound], in “in vitro”, the viability at 48 h, 1 µM came out at 95.3 ± 5.21%; the viability at 48 h, 10 µM was 90.9 ± 4.31%; the viability at 48 h, 50 µM came out at 82.1 ± 3.07%; the viability at 48 h, 100 µM came out at 71.8 ± 4.21%.
Take `COc1ccc([C@@H]2CC(=O)c3c(O)cc(O)cc3O2)cc1O` [Hesperetin, hesperetin]: in “in vitro”, the viability at 48 h, 1 µM was 99 ± 5.87%; the viability at 48 h, 10 µM stood at 93 ± 4.33%; the viability at 48 h, 50 µM was 85.2 ± 3.43%; the viability at 48 h, 100 µM amounted to 67.3 ± 5.21%. This compound also came in with an IC50 on BuChE of 2900 ± 67 nM. Also, on AChE, half-maximal inhibition (IC50) required 1020 ± 37 nM and the “Selective Index” value turned out to be 3.
On to `Nc1c2c(nc3ccccc13)CCCC2` [Tacrine, tacrine, reference compound], for which, in data set [1], the ORAC is <0.1 μM of Trolox equivalent/μMof tested compound.

By viability is commonly meant a read-out of living cells in per cent, often relative to untreated cells. The term IC50 denotes the concentration that inhibits the measured activity by half.
